Data published in patent US9040717B2, “Pyrazole-amide compounds and pharmaceutical use thereof” (JAPAN TOBACCO INC., priority 2013, dated 2015).

Assays:
[1] = Metabolic stability test in rat liver microsome; format: in vitro ADME
[2] = test system: adipose tissue PDH activity; assay: Ex vivo PDH activation assay, adipose tissue; format: in vivo, Sprague-Dawley rats
Experimental: (§1) The action of test compound on tissue PDH activity was evaluated. NADH production was detected via p-iodonitrotetrazolium violet (INT)-coupled system to measure PDH activity.
(§2) Normal male Sprague-Dawley rats were randomly allocated to the vehicle group and the test compound groups. The vehicle (0.5% aqueous methylcellulose solution, 5 mL/kg) or the test compound was orally administered to the rats. At 5 or 20 hr after administration, the rats were anesthetized with an intraperitoneal injection of sodium pentobarbital (60 mg/kg), and liver slices and epididymal adipose tissues were collected.
(§3) To the adipose tissues were rapidly added 3 volumes of an ice-cold homogenization buffer, and the mixtures were homogenized using a Polytron homogenizer. The homogenates were centrifuged at 600×g, 4° C. for 10 min to obtain the supernatant. The supernatants were centrifuged at 16,000×g, 4° C. for 10 min to collect the precipitates. The precipitates were washed by resuspension in the homogenization buffer (1 mL) and centrifuged in the same manner. The precipitates were frozen with liquid nitrogen and stored at −80° C. as the adipose tissue mitochondrial fraction.
(§4) The mitochondrial fractions were thawed and suspended with the sample buffer (0.25 mol/L sucrose, 20 mmol/L tris(hydroxymethyl)aminomethane hydrochloride (pH 7.5), 50 mmol/L potassium chloride, and 1 mL/L 4-(1,1,3,3-tetramethylbutyl)phenyl-polyethylene glycol (Triton X-100)). Active PDH activity (PDHa activity) and total PDH activity (PDHt activity) were measured to evaluate the PDH activity. For the measurement of the PDHt activity, equal amounts of the mitochondrial suspension and the activation buffer (0.25 mol/L sucrose, 20 mmol/L tris(hydroxymethyl)aminomethane hydrochloride (pH 7.5), 50 mmol/L potassium chloride, 1 mL/L Triton X-100, 4 mmol/L calcium chloride, 40 mmol/L magnesium chloride, 10 mmol/L sodium dichloroacetate) were mixed, and the mixtures were incubated at 37° C. for 10 min. Forty microliters of the mitochondrial suspensions diluted with a sample buffer were added to a 96-well microplate for activity measurement and blank measurement. Then 180 μL of the reaction mixture (0.056 mmol/L potassium phosphate buffer (pH 7.5), 5.6 mmol/L DL-carnitine, 2.8 mmol/L NAD, 0.22 mmol/L thiamin pyrophosphate, 0.11 mmol/L Coenzyme A, 1.1 mL/L Triton X-100, 1.1 mmol/L magnesium chloride, 1.1 g/L bovine serum albumin, 0.67 mmol/L INT, 7.2 μmol/L phenazine methosulfate, 28 mmol/L sodium oxamate) was added to each well, and then 20 μL of 50 mmol/L sodium pyruvate for activity measurement or water for blank measurement were added. The mixtures were incubated at room temperature under shading. The absorbances at 500-750 nm, which were attributable to reduction of INT, the final electron acceptor, were measured using a microplate reader over time and the changes in the absorbance were calculated. The PDH activity was calculated by subtraction of the change in absorbance of the blank well from that of the activity measurement well. The percentage of the PDHa activity to the PDHt activity was calculated and taken as an index of the PDH activation.

[3] = Metabolic stability test in human liver microsome; format: in vitro ADME; conditions: 5 μM, 37° C.
Experimental: Human liver microsome (manufactured by Xenotech, H0620, final concentration (after dilution), 0.2 mg protein/mL) was suspended in 100 mM potassium phosphate buffer (pH 7.4, containing β-nicotinamide adenine dinucleotide phosphate: 1.3 mM, D-glucose-6-phosphate: 3.3 mM, magnesium chloride: 3.3 mM, glucose-6-phosphate dehydrogenase: 0.45 U/mL), and further mixed with a test compound dissolved in MeCN/DMSO (95/5) (final concentration 5 μM). The mixture was incubated at 37° C. for 10 min and 60 min, acetonitrile containing formic acid (final concentration 0.1%) was added, and the mixture was centrifuged. The test compound (unmodified) in the supernatant was measured by high performance liquid chromatography/mass spectrometry (LC/MS) (manufactured by Waters, LC: Acquity UPLC, MS:SQ Detector or TQ Detector). The residual ratio (%) was calculated from the obtained measurement value.

liver PDH activity = assay: Ex vivo PDH activation assay, liver; format: in vivo, Sprague-Dawley rats
Experimental: as §1, §2
as §3, with “liver slices” for “adipose tissues”, “9” for “3”, “of” for “of an”, “buffer (0.25 mol/L sucrose, 5 mmol/L tris(hydroxymethyl)aminomethane hydrochloride (pH 7.5), 2 mmol/L EDTA),” for “buffer,”, “supernatants (1 mL)” for “supernatants”, “liver” for “adipose tissue”
as §4

[4] = Table 2, 5 hr after oral 3 mg/kg, non-fasting SD rats, vehicle 31 ± 10, mean ± S.D. (n = 3)
[5] = Table 2, 20 hr after oral 3 mg/kg, non-fasting SD rats, vehicle 31 ± 10, mean ± S.D. (n = 3)
[6] = Table 2, 5 hr after oral 3 mg/kg, non-fasting SD rats, vehicle 13 ± 3, mean ± S.D. (n = 3)
[7] = Table 2, 20 hr after oral 3 mg/kg, non-fasting SD rats, vehicle 13 ± 3, mean ± S.D. (n = 3)

Q: Which results are given for `CC(C)(O)CCOc1cc(-c2cnn(C(C)(C)C(N)=O)c2)c2c(c1)[C@@](O)(C(F)(F)F)c1ccccc1-2` [Compound (2), 2-{4-[(9R)-9-hydroxy-2-(3-hydroxy-3-methylbutyloxy)-9-(trifluoromethyl)-9H-fluoren-4-yl]-1H-pyrazol-1-yl}-2-methylpropanamide]?
A: Stability in liver microsome (residual ratio %) ([1]; 10 min): 98.8%; Stability in liver microsome (residual ratio %) ([1]; 60 min): 100.0%; PDHa activity (% of PDHt activity) ([2]; Table 3, 5 hr after oral 3 mg/kg, SD rats, vehicle 42 ± 4, mean ± S.D. (n = 3)): 88 ± 11 % of PDHt activity; PDHa activity (% of PDHt activity) ([2]; Table 3, 20 hr after oral 3 mg/kg, SD rats, vehicle 42 ± 4, mean ± S.D. (n = 3)): 61 ± 15 % of PDHt activity; Stability in liver microsome (residual ratio %) ([3]; 10 min): 98.8%; Stability in liver microsome (residual ratio %) ([3]; 60 min): 96.5%; PDHa activity (% of PDHt activity) (liver PDH activity; Table 3, 5 hr after oral 3 mg/kg, SD rats, vehicle 28 ± 6, mean ± S.D. (n = 3)): 74 ± 12 % of PDHt activity; PDHa activity (% of PDHt activity) (liver PDH activity; Table 3, 20 hr after oral 3 mg/kg, SD rats, vehicle 28 ± 6, mean ± S.D. (n = 3)): 50 ± 16 % of PDHt activity

Q: For `CC(C)(O)CCCOc1cc(-c2cnn(C(C)(C)C(N)=O)c2)c2c(c1)[C@@](O)(C(F)(F)F)c1ccccc1-2` [Compound (3), 2-{4-[(9R)-9-hydroxy-2-(4-hydroxy-4-methylpentyloxy)-9-(trifluoromethyl)-9H-fluoren-4-yl]-1H-pyrazol-1-yl}-2-methylpropanamide], which “Stability in liver microsome (residual ratio %)” value (shortened to “Stability … (residual ratio %)”) ([1]; 10 min) is on record?
A: 102.7%

Q: What about the “Stability … (residual ratio %)” value ([1]; 60 min) of the same compound?
A: 95.8%

Q: What about the “PDHa activity (% of PDHt activity)” value [2, 4] of the same compound?
A: 70 ± 9 % of PDHt activity

Q: And the “PDHa activity (% of PDHt activity)” value [2, 5]?
A: 42 ± 3 % of PDHt activity

Q: And the “Stability … (residual ratio %)” value ([3]; 10 min)?
A: 98.4%

Q: And the “Stability … (residual ratio %)” value ([3]; 60 min)?
A: 85.9%

Q: And the “PDHa activity (% of PDHt activity)” value (liver PDH activity; [6])?
A: 56 ± 8 % of PDHt activity

Q: And the “PDHa activity (% of PDHt activity)” value (liver PDH activity; [7])?
A: 32 ± 9 % of PDHt activity

Q: Which “Stability … (residual ratio %)” value ([1]; 10 min) does the source give for `NC(=O)Cn1cc(-c2cc(OCCC34CC5CC(CC(O)(C5)C3)C4)cc3c2-c2ccccc2[C@]3(O)C(F)(F)F)cn1` [Compound (A), 2-(4-{(9R)-9-Hydroxy-2-[2-(3-hydroxyadamantan-1-yl)ethoxy]-9-(trifluoromethyl)-9H-fluoren-4-yl}-1H-pyrazol-1-yl)acetamide] here?
A: 24.8%

Q: And the “Stability … (residual ratio %)” value ([1]; 60 min)?
A: 0.0%

Q: What about the “PDHa activity (% of PDHt activity)” value [2, 4] of the same compound?
A: 32 ± 14 % of PDHt activity

Q: What about the “PDHa activity (% of PDHt activity)” value [2, 5] of the same compound?
A: 24 ± 7 % of PDHt activity

Q: And the “Stability … (residual ratio %)” value ([3]; 10 min)?
A: 34.8%

Q: What about the “Stability … (residual ratio %)” value ([3]; 60 min) of the same compound?
A: 0.0%

Q: What about the “PDHa activity (% of PDHt activity)” value (liver PDH activity; [6]) of the same compound?
A: 35 ± 6 % of PDHt activity

Q: And the “PDHa activity (% of PDHt activity)” value (liver PDH activity; [7])?
A: 16 ± 10 % of PDHt activity

Q: What does the source list for `Cn1cc(-c2cc(OCC(C)(C)O)cc3c2-c2ccccc2[C@]3(O)C(F)(F)F)cn1` [Compound (B), (9R)-2-(2-Hydroxy-2-methylpropoxy)-4-(1-methyl-1H-pyrazol-4-yl)-9-(trifluoromethyl)-9H-fluoren-9-ol]?
A: Stability in liver microsome (residual ratio %) ([1]; 10 min): 101.1%; Stability in liver microsome (residual ratio %) ([1]; 60 min): 92.1%; PDHa activity (% of PDHt activity) [2, 4]: 59 ± 5 % of PDHt activity; PDHa activity (% of PDHt activity) [2, 5]: 30 ± 4 % of PDHt activity; Stability in liver microsome (residual ratio %) ([3]; 10 min): 98.0%; Stability in liver microsome (residual ratio %) ([3]; 60 min): 88.2%; PDHa activity (% of PDHt activity) (liver PDH activity; [6]): 43 ± 7 % of PDHt activity; PDHa activity (% of PDHt activity) (liver PDH activity; [7]): 10 ± 3 % of PDHt activity
